Laboratory results as given in PubChem BioAssay (NCI).
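Exposure lasted 48 hours, with cells grown in 96-well plates and compounds tested at five concentrations. The concentration for full growth arrest is given as TGI.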

Tests used:
Assay in all cases: NCI tumour cell line growth inhibition, 48 h
DLD-1 colon = system: DLD-1 colon
DMS 114 small cell lung = system: DMS 114 small cell lung
HOP-18 NSCLC = system: HOP-18 NSCLC
KM20L2 colon = system: KM20L2 colon
LXFL 529 NSCLC = system: LXFL 529 NSCLC
M19-MEL melanoma = system: M19-MEL melanoma
SNB-78 CNS = system: SNB-78 CNS
XF 498 CNS = system: XF 498 CNS
RXF-631 renal = system: RXF-631 renal

Compound | TGI (DLD-1 colon) | TGI (DMS 114 small cell lung) | TGI (HOP-18 NSCLC) | TGI (KM20L2 colon) | TGI (LXFL 529 NSCLC) | TGI (M19-MEL melanoma) | TGI (SNB-78 CNS) | TGI (XF 498 CNS) | TGI (RXF-631 renal)
CCCCCCCCCCCC(=O)OCC(C[As](=O)(O)O)OC(=O)CCCCCCCCCCC (stereo not drawn) | 31.3 µM | 3.13 µM | 14.1 µM | 20 µM | 5.21 µM | 15.8 µM | 7.69 µM | 7.28 µM | 
O=C1c2ccsc2C(=O)c2sc(CO)cc21 | 0.326 µM |  | 0.113 µM | 0.352 µM | 0.304 µM |  | 0.978 µM | 1.14 µM | 
Cc1cc(N(CCC#N)CCC#N)ccc1/C=C(\NC(=O)/C=C/c1ccccc1)C(N)=O | > 100 µM | > 100 µM |  | > 100 µM | > 100 µM | > 100 µM | > 100 µM | > 100 µM | 
CCOC(=O)CC(C)C1(C(=O)OCC)CCCCC1=O (stereo not drawn) | > 100 µM | 39.4 µM | > 100 µM | > 100 µM | > 100 µM | > 100 µM | > 100 µM | > 100 µM | > 100 µM
Nc1nc([O-])c2c(n1)[n+](C1OC(CO)C(O)C1O)cn2CCO (stereo not drawn) | > 100 µM | > 100 µM | > 100 µM | > 100 µM | > 100 µM | > 100 µM | > 100 µM | > 100 µM | > 100 µM
CN=C(SC)N(C)c1nc(=[N+](C)C)ss1 |  |  |  |  | > 100 µM |  | > 100 µM | > 100 µM | 16.4 µM
Cc1cc(NS(=O)(=O)c2ccc(Nc3c4ccccc4nc4c(C(=O)N5CCN(CCO)CC5)cccc34)cc2)no1 | > 100 µM | > 100 µM | > 100 µM | > 100 µM | > 100 µM | > 100 µM | > 100 µM | > 100 µM | 
C[Si](C)(C)OC1CC(=O)OC1n1cc(F)c(=O)[nH]c1=O (stereo not drawn) | > 100 µM | > 100 µM | > 100 µM | > 100 µM | > 100 µM | > 100 µM |  | > 100 µM | > 100 µM
COc1cc2cc3c4cc(OC)c(OC)cc4cc[n+]3c(C)c2cc1OC (tested in a mixture with another compound) | > 100 µM | > 100 µM | > 100 µM | > 100 µM | > 100 µM | > 100 µM | > 92.9 µM | > 100 µM | 
O=C(CC(=O)n1nc(-c2ccccc2)c(N=Nc2ccc(Cl)cc2)c1-c1ccccc1)Nc1ccc(Cl)cc1 | 44.7 µM | > 56.9 µM | > 100 µM | > 100 µM | > 100 µM | > 76.2 µM | > 100 µM |  | > 100 µM
COC(=O)CC1N=C(NC#N)N(CCc2c[nH]c3ccccc23)C1=O (stereo not drawn) | > 100 µM | > 100 µM |  | > 100 µM | > 100 µM | > 100 µM | > 100 µM | > 100 µM | 
O=c1cc(-c2ccc(Oc3ccccc3)cc2)[nH]c2cc3c(cc12)OCO3 | > 100 µM | > 100 µM |  | > 100 µM | > 100 µM | > 100 µM |  | > 100 µM | 
CC(=O)O[C@H]1C(=O)[C@@]2(C)C(C(OC(=O)c3ccccc3)[C@]3(O)CC(OC(=O)C(O)C(NC(=O)c4ccc(C(F)(F)F)cc4)c4ccccc4)C(C)=C1C3(C)C)[C@]1(OC(C)=O)CO[C@@H]1C[C@@H]2O (stereo partly drawn) | 28.9 µM | 0.122 µM | 31 µM | 0.174 µM |  | 0.271 µM | 10.1 µM | 3.09 µM | 
CC1=CCC(O)C=CC(C)C(O)C(C)C=C(C)C(=O)c2c(O)c(C)cc3c2C(=O)C(N)=C(NC(=O)/C=C\C=C/C=CC(C)C(O)CC1=O)C3=O (stereo not drawn) | > 100 µM | > 100 µM |  | > 100 µM | > 100 µM | > 100 µM | > 100 µM | > 100 µM | 
CN(C)CC1CCCC(CN(C)C)C1OC(=O)c1ccccc1 (stereo not drawn) | > 100 µM |  | > 100 µM | > 100 µM | > 100 µM | > 100 µM | > 100 µM |  | 
